Test results published in patent US9855243B2, “Topical anti-inflammatory pharmaceutical composition with zileuton cream formulation” (Qurient Co., Ltd., priority 2013, dated 2018).

Legend:
[1] = Solution stability test of zileuton in solvents (TRS %); type: physicochemical; settings: for TRS increase rate %: Day 0 to Day 8
Method: In the solution stability test, suitability with solvents for solubilizing zileuton (ethanol, PEG400, propylene glycol, hexylene glycol, capryol 90, benzyl alcohol, water) was screened.
As a result, as illustrated in Tables 2 and 3 below, most of the solvents were suitable to zileuton under the 25° C. condition, but were unstable under the condition of 40° C. or 70° C.

[2] = test system: liver functions of the patient; settings: oral administration; cited from earlier work
[3] = test system: Delayed Type Hypersensitivity Reaction in mouse induced by DNFB; assay: Mouse atopic dermatitis model, DNFB-induced ear inflammation; type: in vivo, BALB/c mouse; settings: ear tissues after day 5 stimulation
Method: According to an embodiment of the present invention, the medical effect of the cream type topical pharmaceutical composition has been verified in a Delayed Type Hypersensitivity Reaction in mouse induced by DNFB. The test article was applied to a mouse's skin 3 times a day, and then the medical effect was measured. Furthermore, an excess amount of the zileuton was injected using a non-optimized test vehicle, acetone.
For this purpose, BALB/c mice were divided into […], each consisting of 10 mice. The groups were divided into a vehicle (acetone), positive control group (dexamethasone 0.05 mg/ear; Dex), and zileuton groups ([…]). And the zileuton groups were divided into cases where acetone (1 mg/ear) and the cream formulation of […] (0.2 mg/ear and 0.02 mg/ear) were used, respectively.
Then, on day 5, 20 μl of 0.3% DNFB was applied once again to cause inflammation in the ears. Then, dexamethasone and zileuton dissolved in acetone vehicle were applied to the ears at 1 hour, 6 hours, and 23 hours after the stimulation on day 5. Thicknesses of the ears were measured at 24 hours after the stimulation on day 5, and then ear tissues were taken for histopathological observation.

[4] = Solubility of zileuton in solvents at 25° C.(RT); type: physicochemical
From the text: Furthermore, the suitability of other various solvents for solubilizing zileuton was screened. […] Especially, hydrophilics solvents such as alcohols may be preferably used.

[5] = test system: atopic dermatitis symptoms; settings: clinical trials; oral administration; cited from earlier work
[6] = test system: inflammation reaction of asthma; settings: clinical trials; oral drug; cited from earlier work

CC(c1cc2ccccc2s1)N(O)C(N)=O (racemic) [Zileuton, (±)-1-(1-(benzo [b]thiophen-2-yl)ethyl)-1-hydroxyurea]
TRS (%) ([1]; in Benzyl alcohol, 25° C., Day 0): 1.642% | TRS increase rate % ([1]; in Benzyl alcohol, 25° C.): 0.381% | TRS (%) ([1]; in Benzyl alcohol, 25° C., Day 1): 0.869% | TRS (%) ([1]; in Benzyl alcohol, 25° C., Day 3): 1.806% | TRS (%) ([1]; in Benzyl alcohol, 25° C., Day 8): 2.023% | TRS (%) ([1]; in Benzyl alcohol, 70° C., Day 0): 1.642% | TRS increase rate % ([1]; in Benzyl alcohol, 70° C.): 22.608% | TRS (%) ([1]; in Benzyl alcohol, 70° C., Day 1): 11.350% | TRS (%) ([1]; in Benzyl alcohol, 70° C., Day 3): 20.397% | TRS (%) ([1]; in Benzyl alcohol, 70° C., Day 8): 24.250% | TRS (%) ([1]; in Capryol 90, 25° C., Day 0): 1.623% | TRS increase rate % ([1]; in Capryol 90, 25° C.): 0.578% | TRS (%) ([1]; in Capryol 90, 25° C., Day 1): 1.444% | TRS (%) ([1]; in Capryol 90, 25° C., Day 3): 1.478% | TRS (%) ([1]; in Capryol 90, 25° C., Day 8): 2.201% | TRS (%) ([1]; in Capryol 90, 70° C., Day 0): 1.623% | TRS increase rate % ([1]; in Capryol 90, 70° C.): 74.822% | TRS (%) ([1]; in Capryol 90, 70° C., Day 1): 10.312% | TRS (%) ([1]; in Capryol 90, 70° C., Day 3): 39.603% | TRS (%) ([1]; in Capryol 90, 70° C., Day 8): 76.445% | TRS (%) ([1]; in Ethanol, 25° C., Day 0): 1.255% | TRS increase rate % ([1]; in Ethanol, 25° C.): 0.882% | TRS (%) ([1]; in Ethanol, 25° C., Day 1): 1.014% | TRS (%) ([1]; in Ethanol, 25° C., Day 3): 1.951% | TRS (%) ([1]; in Ethanol, 25° C., Day 8): 2.137% | TRS (%) ([1]; in Ethanol, 40° C., Day 0): 1.255% | TRS increase rate % ([1]; in Ethanol, 40° C.): 3.449% | TRS (%) ([1]; in Ethanol, 40° C., Day 1): 1.778% | TRS (%) ([1]; in Ethanol, 40° C., Day 3): 2.375% | TRS (%) ([1]; in Ethanol, 40° C., Day 8): 4.704% | TRS (%) ([1]; in Hexylene glycol, 25° C., Day 0): 1.505% | TRS increase rate % ([1]; in Hexylene glycol, 25° C.): 0.475% | TRS (%) ([1]; in Hexylene glycol, 25° C., Day 1): 1.448% | TRS (%) ([1]; in Hexylene glycol, 25° C., Day 3): 1.583% | TRS (%) ([1]; in Hexylene glycol, 25° C., Day 8): 1.980% | TRS (%) ([1]; in Hexylene glycol, 70° C., Day 0): 1.505% | TRS increase rate % ([1]; in Hexylene glycol, 70° C.): 58.847% | TRS (%) ([1]; in Hexylene glycol, 70° C., Day 1): 8.061% | TRS (%) ([1]; in Hexylene glycol, 70° C., Day 3): 29.999% | TRS (%) ([1]; in Hexylene glycol, 70° C., Day 8): 60.352% | TRS (%) ([1]; in Polyethylene glycol (PEG-400), 25° C., Day 0): 1.427% | TRS increase rate % ([1]; in Polyethylene glycol (PEG-400), 25° C.): 2.638% | TRS (%) ([1]; in Polyethylene glycol (PEG-400), 25° C., Day 1): 1.491% | TRS (%) ([1]; in Polyethylene glycol (PEG-400), 25° C., Day 3): 2.897% | TRS (%) ([1]; in Polyethylene glycol (PEG-400), 25° C., Day 8): 4.065% | TRS (%) ([1]; in Polyethylene glycol (PEG-400), 70° C., Day 0): 1.427% | TRS increase rate % ([1]; in Polyethylene glycol (PEG-400), 70° C.): 95.715% | TRS (%) ([1]; in Polyethylene glycol (PEG-400), 70° C., Day 1): 43.725% | TRS (%) ([1]; in Polyethylene glycol (PEG-400), 70° C., Day 3): 94.366% | TRS (%) ([1]; in Polyethylene glycol (PEG-400), 70° C., Day 8): 97.142% | TRS (%) ([1]; in Propylene glycol, 25° C., Day 0): 1.457% | TRS increase rate % ([1]; in Propylene glycol, 25° C.): 0.675% | TRS (%) ([1]; in Propylene glycol, 25° C., Day 1): 1.624% | TRS (%) ([1]; in Propylene glycol, 25° C., Day 3): 1.478% | TRS (%) ([1]; in Propylene glycol, 25° C., Day 8): 2.132% | TRS (%) ([1]; in Propylene glycol, 70° C., Day 0): 1.457% | TRS increase rate % ([1]; in Propylene glycol, 70° C.): 94.868% | TRS (%) ([1]; in Propylene glycol, 70° C., Day 1): 26.382% | TRS (%) ([1]; in Propylene glycol, 70° C., Day 3): 82.228% | TRS (%) ([1]; in Propylene glycol, 70° C., Day 8): 96.325% | TRS (%) ([1]; in Water, 25° C., Day 0): 1.424% | TRS increase rate % ([1]; in Water, 25° C.): 0.541% | TRS (%) ([1]; in Water, 25° C., Day 1): 1.879% | TRS (%) ([1]; in Water, 25° C., Day 3): 1.816% | TRS (%) ([1]; in Water, 25° C., Day 8): 1.965% | TRS (%) ([1]; in Water, 70° C., Day 0): 1.424% | TRS increase rate % ([1]; in Water, 70° C.): 90.570% | TRS (%) ([1]; in Water, 70° C., Day 1): 35.171% | TRS (%) ([1]; in Water, 70° C., Day 3): 80.268% | TRS (%) ([1]; in Water, 70° C., Day 8): 91.994% | Hepatotoxicity [2]: significant hepatotoxicity | Histopathological observation, anti-inflammation function [3]: excellent anti-inflammation function | Zileuton Solubility at RT (% w/w) ([4]; in Caprylocaproyl Polyoxyl-8 Glycerides/Labrasol): 10.81-11.42 % w/w | Zileuton Solubility at RT (% w/w) ([4]; in Castor Oil): <0.16 % w/w | Zileuton Solubility at RT (% w/w) ([4]; in Cyclomethicone): <0.06 % w/w | Zileuton Solubility at RT (% w/w) ([4]; in Diethylene Glycol Monoethyl Ether/Transcutol P): 17.11-17.62 % w/w | Zileuton Solubility at RT (% w/w) ([4]; in Dimethicone): <0.06 % w/w | Zileuton Solubility at RT (% w/w) ([4]; in Isopropyl Myristate): <0.20 % w/w | Zileuton Solubility at RT (% w/w) ([4]; in Light Mineral Oil): <0.04 % w/w | Zileuton Solubility at RT (% w/w) ([4]; in Medium Chain Triglycerides): <0.21 % w/w | Zileuton Solubility at RT (% w/w) ([4]; in Olive Oil): <0.07 % w/w | Zileuton Solubility at RT (% w/w) ([4]; in Polyglyceryl-6 Dioleate): <0.06 % w/w | Zileuton Solubility at RT (% w/w) ([4]; in Polyglyceryl-10 Mono/Dioleate/Caprol PGE-860): <0.16 % w/w | Zileuton Solubility at RT (% w/w) ([4]; in Polyoxyethylene (20) Sorbitan Monolaurate/Tween 20): 8.42-9.24 % w/w | Zileuton Solubility at RT (% w/w) ([4]; in Polyoxyl 40 Hydrogenated Castor Oil/Kolliphor RH40): <0.37 % w/w | Zileuton Solubility at RT (% w/w) ([4]; in Propylene Glycol Dicaprylocaprate): <0.20 % w/w | Zileuton Solubility at RT (% w/w) ([4]; in Safflower Oil): <0.07 % w/w | Zileuton Solubility at RT (% w/w) ([4]; in Squalane): <0.04 % w/w | Zileuton Solubility at RT (% w/w) ([4]; in Triacetin): 0.50-0.72 % w/w | Effect on atopic dermatitis symptoms [5]: alleviates atopic dermatitis symptoms | Anti-inflammatory effect in asthma [6]: effective anti-inflammatory pharmaceutical effect
